Experimental data: patent US8067455B2, “Amino acid derived prodrugs of propofol, compositions, uses and crystalline forms thereof” (XenoPort, Inc., priority 2004, dated 2011)
Read-outs that look alike come from different tables or passages of the source.

Legend:
[1] = Solubility of compound (6) in water and PBS; type: physicochemical
Experimental: (§1) The hydrochloride (3.42 g, 9.89 mmol) was crystallized by dissolution in a mixture of ethanol and toluene (1/10 v/v, 110 mL) at 80° C. and the mixture allowed to cool to room temperature. Large needle-like crystals started to form after standing at room temperature for 48 h. The solution was filtered after standing for 7 days at room temperature. The product (6) was isolated as a white crystalline solid (2.7 g, 79% yield). ^1H-NMR (400 MHz, CD3OD): δ 7.16-7.24 (m, 3H), 4.81-4.85 (dd, J=12.4, 4.4 Hz, 1H), 4.59-4.63 (dd, J=12.0 Hz, 3.2 Hz, 1H), 4.45-4.49 (dd, J=4.4, 2.8 Hz, 1H), 2.98-3.02 (m, 2H), 1.18-1.19 (d, J=7.2 Hz, 12H). MS (ESI) m/z 310.3 (M+H)^+. Melting point: 188.1-189.1° C.

[2] = Stability at room temperature determined by LC/MS; type: physicochemical; details: after three months
Experimental: as §1

[3] = rats, oral dosing; cited from earlier work

Row | SMILES | solubility ([1]; phosphate buffered saline (PBS), aqueous buffer, read-out: solubility in phosphate buffered saline (PBS)) | solubility ([1]; water, read-out: solubility in water) | degradation as an aqueous solution ([2]; aqueous solution) | degradation as a solid ([2]; solid) | administered drug undergoing first pass metabolism [3]
1 | CC(C)c1cccc(C(C)C)c1OC(=O)OC[C@H](N)C(=O)O.Cl [compound (6), (S)-2-Amino-3-(2,6-Diisopropylphenoxy-carbonyloxy)-Propanoic Acid Hydrochloride] | 8180 µg/mL | 7580 µg/mL | no degradation | no degradation | –
2 | CC(C)c1cccc(C(C)C)c1O [propofol, 2,6-diisopropylphenol] | – | – | – | – | approximately 90%
